Experiments:
[1] = test system: stomach (mucosal ulcer in the glandular portion); type: in vivo, rats; conditions: rat, in vivo
Experimental: 15 male SD rats weighing 180 to 220 g were used. These rats were fasted for 24 hours, and separated to three groups each consisting of 5 rats.
Then, one group was used as Control group. A physiological saline solution of 10 % Nikkol was administered intraperitoneally, and the rats were sacrificed with ether 16 hours after the administration. The stomach of each rat was removed, and after 10 ml of physiological saline was injected into the stomachs, the stomachs were fixed by immersing them in a 1 % formalin for 10 minutes. Each stomach was dissected along the greater curvatura, and the length (mm) of mucosal ulcer which occurred in the glandular portion was measured under an anatomical microscope (x 10). The average of the ulcer lengths of the five rats was taken as an ulcer index.
One out of the remaining two groups was used as Example group @. The procedure for Control group was repeated except that a physiological saline solution of 10 % Nikkol containing VIE-MAN in place of the physiological saline solution of 10 % Nikkol was administered intraperitoneally in such a dose that the amount of VIE-MAN was 300 mg/kg, and the ulcer index was determined.
The remaining one group was used as Comparative Example group ⓘ. The procedure for Example group 17 was repeated except that a physiological saline solution of 10 % Nikkol containing indomethacin, which was a nonsteroidal anti-inflammatory preparation (antipyretic analgesic antiphlogistic preparation), in place of the physiological saline solution of 10 % Nikkol was administered intraperitoneally in such a dose that the amount of the indomethacin was 20 mg/kg, and the ulcer index was determined.

[2] = test system: antigen-adjuvant-induced inflammation; assay: antigen-adjuvant-induced inflammation, right hind paw swelling by volumetry; type: in vivo, rats; conditions: 10 mg/kg intraperitoneally
Experimental: (§1) At first, five groups each consisting of five SD male rats weighing 180 to 220 g (total 25 rats) were prepared, and each rat was measured for a size of the subplantar region of the right hind paw. As an antigen to cause an antigen-adjuvant-induced inflammation, 0.2 mg/rat of egg-white albumin was used. Further, as an immune aid (adjuvant), a mixture consisting of 4 mg/rat of aluminum hydroxide and 0.1 ml/rat of pertussis vaccine was prepared.
One out of the five groups was used as Control group. A physiological saline solution of 10 % Nikkol (trade name, dissolving aid, supplied by Nikko Chemical Co., Ltd.) was administered intraperitoneally to each rat, and 0.5 hour after the administration of the physiological saline solution of 10 % Nikkol, the above antigen and adjuvant were administered intracutaneously into the subplantar region of the right hind paw. Then, 0.5, 1, 2, 4, 6, 12 and 24 hours after the administration of the antigen and adjuvant, the swelling on the subplantar region of the right hind paw of each rat was measured by volumetry. And, the average of swelling ratios of the group in every measurement was determined on the basis of the measurement values of the sizes of subplantar regions of the right hind paws of the rats obtained before the administration of the physiological saline solution of 10 % Nikkol.
One of the remaining four groups was used as Example group @. A physiological saline solution of 10 % Nikkol containing VIE-MAN was administered intraperitoneally into each rat of this group in such a dose that the amount of VIE-MAN was 10 mg/kg, and 0.5 hours after the administration of the physiological saline solution of 10 % Nikkol containing VIE-MAN, the above antigen and adjuvant were administered intracutaneously into the subplantar region of the right hind paw. Thereafter, the swelling on the subplantar region of the right hind paw of each rat was measured in the same manner as that for Control group, and the average of swelling ratios of the group in every measurement was determined.
(§2) The same procedure as that for Example group ⑧ was carried out except that a physiological saline solution of 10 % Nikkol containing hydrocortisone which was an anti-inflammatory preparation (immunosuppressive preparation) in place of the physiological saline solution of 10 % Nikkol containing VIE-MAN was administered intraperitoneally in such a dose that the amount of the hydrocortisone was 10 mg/kg.
as §2, with “diphenhydramine” for “hydrocortisone”, “antihistamine” for “anti-inflammatory”, “preparation” for “preparation (immunosuppressive preparation)”
as §2, with “containing indomethacin” for “containing hydrocortisone”, “was a nonsteroidal” for “was an”, “preparation (antipyretic analgesic antiphlogistic” for “preparation (immunosuppressive”, “the indomethacin” for “the hydrocortisone”
as §1, with “first, four” for “first, five”, “five male” for “five”, “SD” for “SD male”, “(total 20” for “(total 25”, “an antigen- adjuvant-induced” for “an antigen-adjuvant-induced”, “was prepared.” for “was used.”
One out of the four groups was used an Control group, and the procedure for Control group in Example 4 was repeated to determine the average of the swelling ratios as a group unit.

[3] = test system: carrageenin-induced inflammation; assay: carrageenin-induced inflammation, right hind paw swelling by volumetry; type: in vivo, rats; conditions: Example 7, Fig. 6
Experimental: Six groups each consisting of five male SD rats weighing 180 to 220 g were used (total 30 rats), and each rat was measured for a size of the subplantar region1 of the right hind paw.
In order to induce carrageenin-induced inflammation, 0.1 ml/rat of a physiological saline solution of 1 % X-carrageenin was prepared.
One out of the six groups was used as Control group. A physiological saline solution of 10 % Nikkol was administered intraperitoneally to each rat of this group, and 0.5 hours after the administration of the physiological saline solution of 10 % Nikkol, 0.1 ml of the physiological saline solution of 1 % X-carrageenin was administered intracutaneously into the subplantar region of the right hind paw of each rat. Then, 0.5, 1, 2, 3 and 4 hours after the administration of […] of the physiological saline solution of 1 % X-carrageenin, the swelling on the subplantar region of the right hind paw of each rat was measured by volumetry, arid the average of swelling ratios of the group in every measurement was determined on the basis of the measurement values of the sizes of subplantar regions of the right hind paws of the rats obtained before the administration of the physiological saline solution of 10 % Nikkol solution.
The procedure for Control group was repeated except that a physiological saline solution of 10 % Nikkol containing VIE-MAN in place of the physiological saline solution of 10 % Nikkol was administered intraperitoneally in such a dose that the amount of VIE-MAN was 10 mg/kg.
The procedure for Control group was repeated except that a physiological saline solution of 10 % Nikkol containing VIE-MAN in place of the physiological saline solution of 10 % Nikkol was administered intraperitoneally in such a dose that the amount of VIE-MAN was 30 mg/kg.
The procedure for Control group was repeated except that a physiological saline solution of 10 % Nikkol containing VIE-MAN in place of the physiological saline solution of 10 % Nikkol was administered intraperitoneally in such a dose that the amount of VIE-MAN was 100 mg/kg.
(§3) The procedure for Example groups ⑭, ⑮ and ⑯ was repeated except that a physiological saline solution of 10 % Nikkol containing cortisone acetate which was a steroidal anti-inflammatory preparation (immunosuppressive preparation) in place of the physiological saline solution of 10 % Nikkol containing VIE-MAN was administered intraperitoneally in such a dose that the amount of the cortisone acetate was 10 mg/kg.
as §3, with “indomethacin” for “cortisone acetate”, “nonsteroidal” for “steroidal”, “(antipyretic analgesic antiphlogistic” for “(immunosuppressive”

IgE antibody = type: in vivo, rats
Experimental: At first, 20 male SD rats weighing 180 to 220 g were prepared. Egg-white albumin in an amount of 1 mg per rat was prepared as an antigen to induce the IgE antibody-antigen mediating immune response. Further, a mixture of 20 mg/rat of aluminum hydroxide with 0.6 mi/rat of pertussis vaccine was prepared as an immune aid (adjuvant).
Then, the above antigen and the above adjuvant were equally administered intracutaneously into the four footpads of each rat for sensitization.
24 Hours after the sensitization, the footpad swelling of each rat was measured by volumetry to determine the swelling ratio (unit: %). Then, the rats were separated into four groups each consisting of 5 rats such that the average swelling ratio of one group was nearly equal to that of another group.
Thereafter, one of the four groups was used as Control group, and a physiological saline solution of 10 % Nikkol (trade name, dissolving aid, supplied by Nikko Chemical Co., Ltd.) was administered intraperitoneally to each rat for the 11 consecutive days after the group separation, and on 15th day after the group separation, the serum of each rat was collected, and measured for an IgE antibody amount by means of a 48-hour homologous PCA reaction (passive cutaneous anaphylaxis reaction) as an index. In addition, the IgE antibody amount is shown in terms of a maximum dilution (unit: %) of serum showing positive reaction (blue spot having a diameter of not less than 5 mm).
Two groups of the remaining three groups were used as Example groups ⑥ and 0. A physiological saline solution of 10 % Nikkol containing VIE-MAN was administered intraperitoneally to each rat of Example group ⑥ in such a dose that the amount of VIE-MAN was 30 mg/kg/day for 11 days after the group separation. And, a physiological saline solution of 10 % Nikkol containing VIE-MAN was administered intraperitoneally to each rat of Example group 0 every other day (number of days for administration: 6 days) in such a dose that the amount of VIE-MAN was 100 mg/kg/day for 11 days after the group separation. Then, on 15th day after the group separation, the serum of each rat was collected, and measured for an IgE antibody amount in the same manner as that for Control group.
One remaining group of the four groups was used as Comparative Example group @. A physiological saline solution of 10 % Nikkol containing hydrocortisone which was an adrenocortical hormone preparation was administered intraperitoneally to each rat in such a dose that the amount of the hydrocortisone was 10 mg/kg/day for the consecutive 11 days after the group separation. Then, on 15th day after the group separation, the serum of each rat was collected, and measured for an IgE antibody amount in the same manner as that for Example groups 6 and ⑦.

[4] = test system: delayed-type hypersensitivity; assay: picryl chloride-induced delayed-type hypersensitivity, ear swelling ratio; type: in vivo, mice; conditions: Example 1, Fig. 1; VIE-MAN 10, 30, 100 mg/kg/day versus methotrexate 1 mg/kg/day, intraperitoneally
Experimental: 76 Male mice (C57BU6Ncrj) weighing 18 to 20 g were used. The abdominal portion of each mouse was shaved such that the shaved portion was about 1 cm^2. Thereafter, 20 µl of an ethanol solution of 7 % picryl chloride was applied to the shaved portions for sensitization.
Eighteen out of the 76 mice were used as Control group. A physiological saline solution containing 10 % Nikkol (Nikkol: trade name, dissolving aid, supplied by Nikko Chemical Co., Ltd.) was administered intraperitoneally to the 18 mice for the consecutive 5 days after the sensitization, and ear thickness of each of these 18 mice was measured on the eighth day after the sensitization. Thereafter, 20 µl of an olive oil solution of 1 % picryl chloride was applied to the ear of each of the mice to cause delayed-type hypersensitivity.
The above pharmaceutical solutions were administered intraperitoneally at the above-described doses for the five consecutive days after the sensitization, and ear thickness of each of these mice was measured on the eighth day after the sensitization. Thereafter, 20 µl of an olive oil solution of 1 % picryl chloride was applied to the ear of each of the mice to cause delayed-type hypersensitivity.
24 Hours after the delayed-type hypersensitivity was induced, the swelling of the ear of each of the mice of Control group and Example groups ①, ②and③ was measured with a dial thickness gauge. On the basis of the values of the ear thickness measured before the application of the olive oil solution of 1 % picryl chloride, the swelling ratio of each of Example groups ①, ② and ③ and Control group was determined.
And, the swelling ratio of the mice was determined.
At first, the abdominal portion of each of forty ICR male mice weighing 20 to 25 g was shaved such that the shaved portion was about 1 cm^2. Thereafter, 20 µl of an ethanol solution of 7 % picryl chloride was applied to the shaved portions for sensitization.

Cc1c(C)c2c(c(C)c1OC1OC(CO)C(O)C(O)C1O)CCC(C)(CCCC(C)CCCC(C)CCCC(C)C)O2 (racemic) [VIE-GAL, dl-a-tocopheryl-,B-galactoside]
side effect on the digestive system [1]: nearly similar results to that of the test on VIE-MAN | inhibition activity against antigen-adjuvant-induced inflammations ([2]; Example 5, Fig. 4, 10 mg/kg): also superior | average of the swelling ratios ([2]; Example 5, Fig. 4, 0.5 hour after administration of antigen and adjuvant, versus Control group): significantly lower than that of the swelling ratios of Control group

CC(=O)OCC(=O)[C@@]1(O)CC[C@H]2[C@@H]3CCC4=CC(=O)CC[C@]4(C)[C@H]3C(=O)C[C@@]21C [cortisone acetate]
inhibition activity against carrageenin-induced inflammation ([3]; VIE-MAN 10, 30, 100 mg/kg, depending upon its dose, comparators 10 mg/kg, intraperitoneally): significant activity at and after 0.5 hour | inhibition activity against carrageenin-induced inflammation compared with VIE-MAN ([3]; comparators 10 mg/kg intraperitoneally): lower than that of VIE-MAN

CN(C)CCOC(c1ccccc1)c1ccccc1 [diphenhydramine, reference compound]
inhibition activity against antigen-adjuvant-induced inflammations ([2]; Example 4, Fig. 3): no inhibition activity was found

C[C@]12CCC(=O)C=C1CC[C@@H]1[C@@H]2[C@@H](O)C[C@@]2(C)[C@H]1CC[C@]2(O)C(=O)CO [hydrocortisone, reference compound]
inhibition activity against the IgE antibody production (IgE antibody; Example 3 / Comparative Example 2, VIE-MAN 30 or 100 mg/kg/day, hydrocortisone 10 mg/kg/day, intraperitoneally): lower than that of VIE-MAN | IgE antibody amount in serum, Average value (IgE antibody; group average, (total 11 days) intraperitoneally, maximum dilution of serum showing positive reaction): 473.6 | inhibition activity against antigen-adjuvant-induced inflammations ([2]; Example 4, Fig. 3): no inhibition activity was found

CN(Cc1cnc2nc(N)nc(N)c2n1)c1ccc(C(=O)N[C@@H](CCC(=O)O)C(=O)O)cc1 [methotrexate, reference compound]
preventive and therapeutical effect on delayed-type hypersensitivity (comparison) [4]: VIE-MAN was superior to methotrexate

Source: patent EP0452507A1, “MEDICINE COMPRISING TOCOPHERYL GLYCOSIDE AS ACTIVE INGREDIENT” (NIPPON HYPOX LABORATORIES INCORPORATED, priority 1989, dated 1991)
